Key:
cloned hTRPM8 channel = molecular target: T1, cloned hTRPM8 channel (Homo sapiens, UniProt Q7Z2W7); experiment: TRPM8 activation, FLIPR calcium assay in CHO cells; format: cell-based
T1 construct: host or cells: CHO cells
Protocol: The in vitro effects of test articles were first evaluated on cloned hTRPM8 channel. […] The test cells were Chinese Hamster Ovary (CHO) cells stably transfected with human TRPM8 cDNAs. […] Substances were evaluated at 8 concentrations (0.03 to 300 μM) with n=4 replicates per determination. For Fluorescence Imaging Plate Reader ([…]″) assay, cells were plated in 384-well black wall, flat clear-bottom microtiter plates (Type: BD Biocoat Poly-D-Lysine Multiwell Cell Culture Plate) at approximately 30,000 cells per well. Cells were incubated at 37° C. overnight to reach a near confluent monolayer appropriate for use in a fluorescence assay. The test procedure was to remove the growth media and to add 40 μL of HBPS containing Fluo-8 for 30 minutes at 37° C. 10 μL of test compound, vehicle, or control solutions in HBPS were then added to each well and read for 4 min using a Fluo-8 calcium kit and the […]″ instrument (Molecular Devices, Sunnyvale, California). […] J. Neurosci.
Concentration-response data were analysed via the FLIPR Control software that is supplied with the FLIPR System (MDS-AT) and fitted to a Hill equation of the following form: Response=Base+(Max−Base)/1+(xhalf/x)^rate, where: “Base” is the response at low concentrations of test compound; “Max” is the maximum response at high concentrations; “xhalf” is the EC50 (the concentration of test compound producing half-maximal activation); and “rate” is the Hill coefficient. Nonlinear least squares fits were made assuming a simple one-to-one binding model.

sebocytes [1] = experiment: Sebocyte viability, MTT assay; format: cell-based, human
Protocol: (§1) The activities of 1-7 and 1-8 on an immortalized sebocyte cell line were examined in the laboratory of Prof Im Myung using methods previously described [Im et al. Epigallocatechin-3-gallate suppresses IGF-I-induced lipogenesis and cytokine expression in SZ95 sebocytes. J. Invest. Dermatol. 132, 2700-8 (2012)]. Proliferation of the sebocytes was measured using the MTT assay, by examination of micrographs of the cells in culture, and ^3H-thymidine incorporation. The effects of the test agents on lipogenesis were further studied by Oil Red O staining and analysis of the lipid composition of the cells. Studies were also conducted on signaling pathways for lipogenesis [PPAR and SREBP-1, Trivedi et al. Peroxisome proliferator-activated receptors increase human sebum production. J. Invest. Dermatol. 126, 2002-9 (2006)].
The MTT assay is a colorimetric assay for cell viability. MTT [3-(4,5-dimethylthiazol-2-yl)-2-5-diphenyltetrazolium bromide], a yellow tetra-azole dye, is reduced to purple formazan in living cells by NADPH-dependent oxidoreductase enzymes. When the number of viable cells decreases the amount of enzymatic activity and purple color decreases and this can be measured with a spectrophotometer.
(§2) 1-7 and 1-8 are sensory cooling agents on the skin and activators [agonists] of the TRPM8 ion channel protein. […] The indicators used for direct comparison were sebocyte viability measured in the MTT assay and then the ^3H-thymidine incorporation assay.

sebocytes [2] = experiment: 3H-thymidine incorporation into sebocytes; format: cell-based, human; settings: Homo sapiens, 3 h; uptake into sebocytes; NS = not significant
Protocol: as §1, §2

sebocytes [3] = experiment: IGF-1 stimulated lipogenesis in sebocytes (Oil Red O, thin-layer and gas chromatography of lipids); format: cell-based, human
Protocol: as §1, with “132, 2700-8 (2012)].” left out, “Dermatol.” for “Dermatol. 126, 2002-9 (2006)].”
J. Invest. Dermatol. […] Oil Red 0 [Sudan Red 5B] is a diazo dye used for staining neutral triglycerides and lipids on cells.

[4] = Foaming of aqueous solution on manual shaking; format: physicochemical; settings: 10 mg/mL in distilled water
Protocol: The foaming seen in 7B is characteristic of a surface active agent or “surfactant” and is caused by an amphiphilic structure.
Plain water will not make bubbles because the water molecules are more strongly attracted to each other than to air. But when a surfactant is added, the surface tension of the liquid is reduced and it can wrap itself around air to form foam or soap bubbles. The foaming is enhanced when the liquid is shaken vigorously.

zygomatic/forehead skin = experiment: Cooling sensation after application to zygomatic/forehead skin; format: in vivo, human
Protocol: When certain Dapa compounds are applied to the zygomatic and forehead skin, sensations of coolness/cold are felt and can be graded in intensity [Wei. 1-Di-isopropyl-phosphinoyl-alkanes as topical agents for the treatment of sensory discomfort. US 2015/0164924]. For example, one can rate the sensation as 0, 1, 2, or 3 with: 0 as no change; 1 as slight coolness, or cold; 2 as clear-cut signal of coolness or cold; and 3 as strong cooling or cold. The intervals for recording are 5 to 15 minutes, until at least two successive zeroes are obtained. The onset of drug action is taken as the time to reach 2 units of coolness intensity. The active compounds here, e.g, 1-7 produce cooling with 1 min after application. The duration of Dapa-compound action is defined as the offset time minus the onset time. The offset of drug action is defined here as the time when coolness intensity drops below 2, after previously surpassing 2 units.
Test compounds were applied to the skin of the forehead and zygomatic using cotton gauze (0.4 g, rectangular, 50 mm×60 mm; from CS-being, Daisan Cotton, Japan). The test compounds were used at a concentration of 20 mg/mL in distilled water. From the data shown above, it can be seen that, among these compounds, 1-7 and 1-8 evoked cool/cold on zygomatic/forehead skin.

[5] = system: Peroxisome proliferator-activated receptors [PPAR]; experiment: Marker of sebum production in sebocytes: PPAR; format: cell-based, human
Protocol: as §1
(§3) There are intracellular biochemical receptors and markers of sebocyte activation and sebum production. Peroxisome proliferator-activated receptors [PPAR] agonists increase sebum production in isolated sebocytes [Trivedi et al. (2006)]. This class of receptors is reduced after 1-8. Similarly, the […] which is linked to lipogenesis in sebocytes, was reduced by 1-8. These effects were specific to the markers of sebum production, as cellular receptors such as TRPM8 and actin were not affected by 1-8.

[6] = system: sterol-response binding protein [SBEP-1]; experiment: Marker of sebum production in sebocytes: SREBP-1; format: cell-based, human
Protocol: as §1, §3

TRPM8 and actin = experiment: Non-sebum cellular markers in sebocytes; format: cell-based, human
Text: as §3

human sebocytes = experiment: Inhibition of sebocyte function in cultured human sebocytes (assay not specified); format: cell-based; settings: 0.1mM
Protocol: as §1, §2

T1 sequence (Q7Z2W7 whole entry): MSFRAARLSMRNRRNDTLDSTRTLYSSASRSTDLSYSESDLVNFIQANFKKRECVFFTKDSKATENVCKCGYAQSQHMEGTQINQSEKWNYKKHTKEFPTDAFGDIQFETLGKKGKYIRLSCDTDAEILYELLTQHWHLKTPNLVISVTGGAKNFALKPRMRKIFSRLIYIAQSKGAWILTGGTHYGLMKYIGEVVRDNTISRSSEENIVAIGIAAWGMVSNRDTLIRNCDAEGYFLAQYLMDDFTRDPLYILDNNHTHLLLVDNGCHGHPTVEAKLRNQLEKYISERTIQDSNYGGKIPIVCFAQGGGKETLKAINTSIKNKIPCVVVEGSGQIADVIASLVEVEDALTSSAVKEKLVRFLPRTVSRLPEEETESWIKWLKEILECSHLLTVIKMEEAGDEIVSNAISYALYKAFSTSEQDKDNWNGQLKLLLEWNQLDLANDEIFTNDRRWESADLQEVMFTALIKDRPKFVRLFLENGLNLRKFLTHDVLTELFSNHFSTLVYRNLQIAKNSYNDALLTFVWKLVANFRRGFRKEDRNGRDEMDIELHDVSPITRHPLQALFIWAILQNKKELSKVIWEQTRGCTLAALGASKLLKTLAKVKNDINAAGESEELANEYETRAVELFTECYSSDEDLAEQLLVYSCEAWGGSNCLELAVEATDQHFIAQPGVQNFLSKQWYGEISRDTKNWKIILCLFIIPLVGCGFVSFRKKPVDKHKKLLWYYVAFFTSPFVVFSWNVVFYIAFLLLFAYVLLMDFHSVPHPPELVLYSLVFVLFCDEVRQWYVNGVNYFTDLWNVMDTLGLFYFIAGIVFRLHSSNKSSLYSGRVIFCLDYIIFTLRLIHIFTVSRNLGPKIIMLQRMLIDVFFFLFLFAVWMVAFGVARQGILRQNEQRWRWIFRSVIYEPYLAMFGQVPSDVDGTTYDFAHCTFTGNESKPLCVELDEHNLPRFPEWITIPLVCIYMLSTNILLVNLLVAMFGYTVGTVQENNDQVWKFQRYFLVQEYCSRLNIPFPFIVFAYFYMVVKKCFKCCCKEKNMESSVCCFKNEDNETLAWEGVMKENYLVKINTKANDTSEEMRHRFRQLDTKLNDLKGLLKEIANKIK

| SMILES | Activity on TRPM8 (cloned hTRPM8 channel) | Activity relative to 1-8 in the MTT sebocyte assay (sebocytes [1]; FIG. 4) | Sebocyte cell viability as % of controls (FIG. 4) (sebocytes [1]; at 0.10 μM) | activity at 10 µM (sebocytes [2]) [%] | Levels / production of squalene (thin layer chromatography, FIG. 5) (sebocytes [3]; IGF-1 stimulated sebocytes) | Appearance after manual shaking (FIG. 7B) [4] | Relative Potency to I-menthol (cloned hTRPM8 channel; TRPM8 EC50 relative to I-menthol) | Sensory Quality (zygomatic/forehead skin; 20 mg/mL in distilled water) | Duration (zygomatic/forehead skin; 20 mg/mL in distilled water, offset minus onset) [h] | Onset (zygomatic/forehead skin; 20 mg/mL in distilled water, time to reach 2 units of coolness) [min] | Duration of localized cooling and refreshing sensations (zygomatic/forehead skin; forehead skin, 20 mg/mL, 0.08 to 0.15 mL) | Photomicrographs of sebocyte cultures (sebocytes [1]; 0.1mM) | Sebocyte cell viability as % of controls (FIG. 3) (sebocytes [1]; concentrations in mM, 1-8 at 1 mM) | IGF-1 induced increase of lipids in cells (Oil Red O photomicrograph) (sebocytes [3]; IGF-1 50 ng/mL, 0.1mM) | Squalene and wax esters (thin-layer chromatography and gas-chromatography) (sebocytes [3]; IGF-1 stimulated sebocytes) | PPAR level [5] | SBEP-1 level [6] | TRPM8 and actin levels (TRPM8 and actin) | Inhibition of sebocyte function (human sebocytes) |
| --- | --- | --- | --- | --- | --- | --- | --- | --- | --- | --- | --- | --- | --- | --- | --- | --- | --- | --- | --- |
| CCCCCCCCCCCP(=O)(C(C)C)C(C)C [Code 1-11, 1-diisopropylphosphorylundecane] | low potency | 10,000 x | strongly inhibited | ≥ 88 | lowers | foaming | – | – | – | – | – | – | – | – | – | – | – | – | – |
| CCCCCCCCP(=O)(C(C)C)C(C)C [Code 1-8, 1-diisopropylphosphoryloctane] | – | – | – | ≥ 78 | – | – | 5.4 | cold-icy | 4.0 | ~1 | several hours | patchy empty spaces | strongly inhibited | inhibited | selectively decreased | reduced | reduced | not affected | potent inhibitor |
